Assay results published in US20250144067A1, “PERSONALIZED STARVATION THERAPY FOR CANCER” (Faeth Therapeutics, Inc., priority 2021, published 2025).
Counter-ions that a name gives are not always drawn.

Columns and labels:
[1] = system: NCI-H292 lung cancer cells; assay: FDA drug screening, complete media vs cholesterol-free media without statin (TABLE 1); type: cell-based, human
[2] = system: NCI-H292 lung cancer cells; assay: FDA drug screening, complete media vs cholesterol-free media with simvastatin (TABLE 2); type: cell-based, human; details: for Cholesterol-free media + simvastatin (0.04 μM) / Complete Media: NCI-H292 cells
[3] = Complete minus Cholesterol-free, greater than 0 enhanced anti-cancer activity, about 0 neutral, below 0 antagonist
[4] = NCI-H292 cells, FDA drug library screen, cholesterol-free media without statin
[5] = NCI-H292 cells, FDA drug library screen, complete media
[6] = FDA library drug in cholesterol-free media with simvastatin 0.04 μM
[7] = FDA library drug in complete media
[8] = complete media vs cholesterol-free media + simvastatin (0.04 μM), >0 enhanced anti-cancer activity, about 0 neutral, <0 antagonist
[9] = NCI-H292 cells, cholesterol-free media without statin, FDA drug library screen
[10] = NCI-H292 cells, complete media, FDA drug library screen
[11] = drug in cholesterol-free media with simvastatin 0.04 μM
[12] = NCI-H292 cells in cholesterol-free media without statin
[13] = NCI-H292 cells in complete media
[14] = cholesterol-free media with simvastatin 0.04 μM, FDA drug library screen (TABLE 2)
[15] = complete media, FDA drug library screen (TABLE 2)
[16] = complete media minus cholesterol-free media + simvastatin (0.04 μM), >0 enhanced anti-cancer activity, about 0 neutral, <0 antagonist
[17] = Complete minus Cholesterol-free, […]
[18] = NCI-H292 cells, cholesterol-free media without statin
[19] = complete media vs cholesterol-free media + simvastatin (0.04 μM), […]
[20] = complete media minus cholesterol-free media + simvastatin, >0 enhanced anti-cancer activity, about 0 neutral, <0 antagonist
[21] = Complete minus Cholesterol-free, >0 enhanced anti-cancer activity, about 0 neutral, <0 antagonist
[22] = FDA drug library screen, cholesterol-free media with simvastatin 0.04 μM
[23] = FDA drug library screen, complete media
[24] = complete media minus cholesterol-free media + simvastatin (0.04 μM), […]

CC(C)Cc1ccc(C(C)C(=O)OCc2ccccn2)cc1 (stereo not drawn) [Ibuprofen piconol]
Difference [1, 3]: −0.18 | Cholesterol-free [1, 4]: 1.26 | Complete [1, 5]: 1.082 | Cholesterol-free media + simvastatin (0.04 μM) [2, 6]: 1.357 | Complete Media [2, 7]: 0.8958 | Difference [2, 8]: −0.46

CC(C)NCC(O)COc1cccc2[nH]ccc12 (stereo not drawn) [Pindolol]
Cholesterol-free [1, 9]: 0.8852 | Complete [1, 10]: 0.973 | Difference ([1]; complete vs cholesterol-free media, >0 enhanced anti-cancer activity, about 0 neutral, <0 antagonist): 0.09 | Cholesterol-free media + simvastatin (0.04 μM) [2, 11]: 1.032 | Complete Media ([2]; drug in complete media): 0.7777 | Difference [2, 8]: −0.25

CC(C)NC[C@H](O)COc1ccc(CCOCC2CC2)cc1 [Levobetaxolol (hydrochloride)]
Difference ([1]; Complete minus Cholesterol-free, greater than 0 enhanced anti-cancer activity, about 0 neutral, below 0 antagonists): −0.54 | Cholesterol-free [1, 12]: 1.517 | Complete [1, 13]: 0.977 | Cholesterol-free media + simvastatin (0.04 μM) [2, 14]: 1.004 | Complete Media [2, 15]: 0.9581 | Difference [2, 16]: −0.05

Nc1ccc(C(=O)NCC(=O)[O-])cc1.[Na+] [Aminohippurate (sodium)]
Difference [1, 17]: −0.25 | Cholesterol-free [1, 18]: 1.249 | Complete ([1]; NCI-H292 cells, complete media): 0.9961 | Cholesterol-free media + simvastatin (0.04 μM) [2, 11]: 1.368 | Complete Media ([2]; drug in complete media): 1.199 | Difference [2, 19]: −0.17

CCCC(=O)O[C@]1(C(=O)COC(=O)CC)CC[C@H]2[C@@H]3CCC4=CC(=O)CC[C@]4(C)[C@H]3[C@@H](O)C[C@@]21C [Hydrocortisone buteprate]
Difference [1, 3]: −0.17 | Cholesterol-free [1, 4]: 0.8122 | Complete [1, 5]: 0.6382 | Cholesterol-free media + simvastatin (0.04 μM) ([2]; cholesterol-free media with simvastatin 0.04 μM, cell growth value in FDA drug screen): 0.6107 | Complete Media ([2]; complete media, cell growth value in FDA drug screen): 0.6538 | Difference [2, 20]: 0.04

CCCCC(=O)O[C@H]1CC[C@H]2[C@@H]3CCc4cc(O)ccc4[C@H]3CC[C@]12C [Estradiol valerianate]
Cholesterol-free [1, 18]: 1.221 | Complete ([1]; NCI-H292 cells, complete media): 0.8253 | Difference ([1]; complete vs cholesterol-free media, greater than 0 enhanced anti-cancer activity, about 0 neutral, below 0 antagonists): −0.40 | Cholesterol-free media + simvastatin (0.04 μM) [2, 14]: 0.9732 | Complete Media [2, 15]: 0.9423 | Difference [2, 16]: −0.03

COc1cc2nc(N(C)CCCNC(=O)C3CCCO3)nc(N)c2cc1OC (stereo not drawn) [Alfuzosin (hydrochloride)]
Difference [1, 21]: −0.22 | Cholesterol-free [1, 18]: 1.203 | Complete ([1]; NCI-H292 cells, complete media): 0.9827 | Cholesterol-free media + simvastatin (0.04 μM) [2, 22]: 0.7758 | Complete Media [2, 23]: 1.007 | Difference [2, 20]: 0.23

CCc1cc2c(cc1N1CCC(N3CCOCC3)CC1)C(C)(C)c1[nH]c3cc(C#N)ccc3c1C2=O [Alectinib]
Difference [1, 21]: −0.21 | Cholesterol-free [1, 18]: 1.125 | Complete ([1]; NCI-H292 cells, complete media): 0.9146 | Cholesterol-free media + simvastatin (0.04 μM) [2, 6]: 1.385 | Complete Media [2, 7]: 1.02 | Difference [2, 8]: −0.37

N#C[C@@H]1C[C@@H]2C[C@@H]2N1C(=O)[C@@H](N)C12CC3CC(CC(O)(C3)C1)C2 [Saxagliptin]
Difference [1, 21]: −0.04 | Cholesterol-free [1, 9]: 0.9657 | Complete [1, 10]: 0.9238 | Cholesterol-free media + simvastatin (0.04 μM) [2, 14]: 0.8307 | Complete Media [2, 15]: 0.816 | Difference [2, 16]: −0.01

CC(=O)C1CCC2C3CC=C4CC(OS(=O)(=O)O)CCC4(C)C3CCC12C (stereo not drawn) [Pregnenolone monosulfate]
Difference [1, 17]: −0.11 | Cholesterol-free [1, 4]: 1.032 | Complete [1, 5]: 0.9202 | Cholesterol-free media + simvastatin (0.04 μM) [2, 14]: 1.305 | Complete Media [2, 15]: 1.254 | Difference [2, 24]: −0.05

C1CCC(C(CC2CCCCN2)C2CCCCC2)CC1 (stereo not drawn) [Perhexiline maleate]
Difference [1, 3]: −0.14 | Cholesterol-free [1, 4]: 1.139 | Complete [1, 5]: 1.003 | Cholesterol-free media + simvastatin (0.04 μM) [2, 14]: 0.8717 | Complete Media [2, 15]: 0.811 | Difference [2, 16]: −0.06

Cc1ncc([N+](=O)[O-])n1CC(O)CN1CCOCC1 (stereo not drawn) [Morinidazole (R enantiomer)]
Difference [1, 21]: −0.04 | Cholesterol-free [1, 9]: 1.104 | Complete [1, 10]: 1.064 | Cholesterol-free media + simvastatin (0.04 μM) [2, 22]: 1.178 | Complete Media [2, 23]: 1.022 | Difference [2, 8]: −0.16

Streptomycin (sulfate)
Difference [1, 17]: −1.05 | Cholesterol-free [1, 12]: 2.317 | Complete [1, 13]: 1.265 | Cholesterol-free media + simvastatin (0.04 μM) [2, 11]: 1.77 | Complete Media ([2]; drug in complete media): 1.586 | Difference [2, 19]: −0.18

COc1cc2c(cc1OC)-c1cc3ccc(OC)c(OC)c3c[n+]1CC2.[Cl-] [Palmatine (chloride)]
Difference [1, 17]: −0.14 | Cholesterol-free [1, 4]: 0.7642 | Complete [1, 5]: 0.6255 | Cholesterol-free media + simvastatin (0.04 μM) [2, 14]: 0.706 | Complete Media [2, 15]: 0.6459 | Difference [2, 24]: −0.06
